Experimental data from US7264947B2, “Activity dependent neurotrophic factor III (ADNF III)” (United States of America, as represented by the Secretary …, priority 1997, dated 2007).
Read-outs that look alike come from different tables or passages of the source.

Legend:
[1] = test system: choline acetyl transferase; assay: brain ChAT (choline acetyl transferase) activity in ApoE-deficient mice; assay type: in vivo; details: daily subcutaneous injections from birth to 14 days, measured at 21 days
Method: The graph depicts incorporation of radio-labeled choline into acetylcholine. Experiments were conducted as described. Apo-E deficient mice are designated: ApoE; 100% activity in the control (C57B6) mice indicated 669758.4 pmole/mg protein/min. As the experiments were repeated 3-5 times the results were standardized against the control calibrated at 100% per each experiment. ApoE-deficient mice daily injected with peptides are designated ADNF-14, ADNF-9, and NAP, respectively.
ChAT activity was measured according to published procedures (Formum et al., Neurochem. 24:407-409 (1975)). Brains were homogenized with 10 volumes of 50 mM phosphate buffer containing 300 mM NaCl, 20 mM EDTA, and 0.5% triton. The homogenates were centrifuged at 12,000×g for 15 min., and […] of supernatant was mixed with […] of a solution of […] ^14C-acetyl CoA ([…] NEN), 20 mM acetylcholine, 1.6 mM choline chloride, 0.25 mM eserine, and phosphate buffer. Incubation was 15 min. at 37° C. The reaction was terminated and radioactivity was measured in a beta-counter. • 21. Apolipoprotein E (ApoE) Deficient Mouse Model
(§1) ApoE knockout mice and normal controls were a gift from the late Prof. Shlomo Eisenberg of Tel Aviv University, originally provided by Dr. J. L. Breslow (Plump et al., Cell 71:343-353 (1992)). The ApoE knockout mice were obtained from embryonic stem cells OLA 129 in C57B6×FVB mice (as described). Age-matched controls were inbred C57B6 mice. Groups of mouse pups were treated from birth until the age of 14 days. Daily subcutaneous injections included: […] saline (days 1 through 4), […] saline (days 5 through 10) and […] saline (days 11-14).
ChAT activity was measured according to published procedures (Formum et al., Neurochem. 24:407-409 (1975)).

ApoE-deficient mice = assay: developmental milestones (placing response, cliff avoidance) in ApoE-deficient mice; assay type: in vivo; details: for acquisition of the placing response and the cliff avoidance response: daily injection; for marked improvement of placing response at the first day of treatment: tested 60 min. after injection
Excerpt: Animals (15-37 per experimental group, 5-8 per litter) were submitted to placing response assays daily following injection of: 1. saline (open circles, C57B6 mice=control, n=37, closed circles, ApoE deficient=ApoE, n=22). Experiments were repeated three times. Score indicates: 0=no reaction, 1=time to acquire a response shorter than 15 seconds; 2=time to acquire a response shorter than 10 seconds; 3=time to acquire a response shorter than 5 seconds. Age (days) indicate: the age of the tested animals in days. Results are mean±SEM.
as §1
Developmental milestones were measured using at least three dams with […] each for every experimental point. All observations were made between 12 noon and 4 pm. From day one through day six, mice were weighed and tested 60 min. after the daily injection. Placing is a behavioral parameter that is measured as the time elapsing between contact of the foot against the edge of an object and its placing on the top of the same object.
Further measurements in the Apo-E-deficient mouse included assessments of the time of onset of developmental milestones of behavior. […] A significant difference was observed among the treatment groups on the first day of testing (P<0.0001), with inbred C57B6 mice developing faster than the ApoE-deficient animals. […] NAP-treated animals were the fastest.

[2] = test system: cerebral cortical cultures; assay type: cell-based, newborn rats; details: for dilutions giving significant neuroprotection against tetrodotoxin: dilutions of a 1 mg/ml protein solution (E. coli extract) in PBS, 1 μM tetrodotoxin, five days
ADNF III mRNA = assay: mimic polymerase chain reaction of ADNF III mRNA in mouse embryos incubated in vitro; assay type: cell-based; details: 9.5-day-old mouse embryos incubated in vitro for four hours, ratio with cyclophilin mRNA
astrocytes = assay: western blot of secreted ADNF-like immunoreactivity in astrocyte conditioned medium; assay type: cell-based, rat
Excerpt: FIGS. 4A-B. FIG. 4A illustrates the western blot hybridization for immunological detection of the cloned ADNF III protein from bacterial extracts. Bacterial extracts expressing clone p25 were subjected to 10% SDS-polyacrylamide gel electrophoresis followed by western blot analysis with the antibodies used for cloning. […] CBB=Coomassie Brilliant Blue (protein) staining of the same lanes that were subjected western blot analysis. […] FIG. 4B illustrates immunological identification of a secreted ADNF III protein in astrocyte conditioned medium. Astrocyte-conditioned medium was prepared as described supra (see Brenneman & Gozes, J. Clin. Invest. 97:[…] (1996)), with a protein of a high molecular weight identified as the ADNF III molecule by western blot hybridization. SDS-polyacrylamide gel electrophoresis was performed as indicated in the above cited paper. Astroglial cultures obtained from newborn rat cerebral cortex were utilized. Cell extracts and conditioned medium from astrocytes that were treated or untreated with VIP (+, −) were subjected to electrophoresis through 10% polyacrylamide slab gel containing 0.1% SDS. Western blot analysis was performed with antibodies utilized for the cloning (anti-SALLRSIPA=α1).
a. Astrocytes: Astrocytes were prepared from 1-day-old (Sprague-Dawley) rats. […]

neuronal cell death = assay: neuroprotective effects of ADNF III (summary statement); assay type: cell-based
Excerpt: The present invention relates to the discovery of a nucleic acid encoding a novel neuroprotective polypeptide, i.e., Activity Dependent Neurotrophic Factor III (ADNF III), also called Activity Dependent Neuroprotective Protein (ADNP). […] Based on the recognized homology between ADNF I and hsp60, a heat shock protein, and PIF1, a DNA repair protein, these two epitopes were utilized to prepare antibodies which, in turn, were used to screen a mouse cDNA-expression library to identify the new neuroprotective polypeptide ADNF III. One mouse ADNF III cDNA clone consists of about 2418 base pairs of an open reading frame, which encodes an ADNF III polypeptide of about 806 amino acids, pI 5.85 (nucleotide sequence, SEQ ID NO:4; amino acid sequence, SEQ ID NO:3, see FIG. 1). An additional mouse cDNA has been cloned, encoding an ADNF III polypeptide of about 828 amino acids, pI 5.99 (nucleotide sequence, SEQ ID NO:54; amino acid sequence, SEQ ID NO:55; see FIG. 11). Human cDNAs encoding ADNF III have also been cloned (“H3” nucleotide sequence, SEQ ID NO:2; “H3” amino acid sequence, SEQ ID NO:1; “H3” nucleotide sequence, SEQ ID NO:56 and FIG. 12; “H3” amino acid sequence, SEQ ID NO:57 and FIG. 12; “H7” nucleotide sequence, SEQ ID NO:58 and FIG. 13; and “H7” amino acid sequence, SEQ ID NO:59 and FIG. 13). […] The promoter sequence for ADNF III has also been cloned (SEQ ID NO:60 and FIG. 14).

[3] = test system: cerebral cortical cultures; assay: neuroprotection against β-amyloid peptide (25-35) neurotoxicity in cerebral cortical cultures; assay type: cell-based, newborn rats; details: dilutions of a 1 mg/ml protein solution (E. coli extract) in PBS, 25 μM β-amyloid fragment 25-35, five days

SALLRSIPA [ADNF-9] was tested, and the “brain ChAT activity compared with vehicle-treated or untreated ApoE-deficient mice” value [1] was “did not significantly improve”, the “placing response from the second postnatal day onwards” value (ApoE-deficient mice; P<0.0001) was “best performers” and the “acquisition of the placing response and the cliff avoidance response” value (ApoE-deficient mice) was “showed acceleration”. The “marked improvement of placing response at the first day of treatment” value (ApoE-deficient mice) was “marked improvement”.

In the case of SVRLGLGGNAPVSIPQQS [reference compound], the “neuroprotection (in words)” value ([2]; FIG. 6A/6B, toxin for the control curves not stated) is reported as “inactive”.

“VIP: 28-amino acid peptide, secretagogue for ADNF” was tested, and the “increase in ADNF III mRNA” value (ADNF III mRNA) was “two-fold” and the “increase in the secreted 60 KD ADNF-like immunoreactivity” value (astrocytes) was “up to 2 fold”.

With VLGGGSALLRSIPA [ADNF-14] the “brain ChAT activity compared with vehicle-treated or untreated ApoE-deficient mice” value [1] was “did not significantly improve”, the “level of performance reached in placing response” value (ApoE-deficient mice) was “never reached the level of performance of the NAP or ADNF-9 animals” and the “day on which a significant difference between treated and untreated animals began to appear (placing response)” value (ApoE-deficient mice; P<0.05) was “third postnatal day”. For the same molecule, the “acquisition of the placing response and the cliff avoidance response” value (ApoE-deficient mice) was “showed acceleration” and the “marked improvement of placing response at the first day of treatment” value (ApoE-deficient mice) was “not”.

B1: clone 25: full length ADNF III expressed from clone 25, tested as E. coli protein extract (protein)
chain: MVNRLSIPKPNLNSTGVNMMSNVHLQQNNYGVKSVGQSYGVGQSVRLGLGGNAPVSIPQQSQSVKQLLPSGNGRSFGLGAEQRPPAAARYSLQTANTSLPPGQVKSPSVSQSQASRVLGQSSSKPPPAATGPPPSNHCATQKWKICTICNELFPENVYSVHFEKEHKAEKVPAVANYIMKIHNFTSKCLYCNRYLPTDTLLNHMLIHGLSCPYCRSTFNDVEKMAAHMRMVHIDEEMGPKTDSTLSFDLTLQQGSHTNIHLLVTTYNLRDAPAESVAYHAQNNAPVPPKPQPKVQEKADVPVKSSPQAAVPYKKDVGKTLCPLCFSILKGPISDALAHHLRERHQVIQTVHPVEKKLTYKCIHCLGVYTSNMTASTITLHLVHCRGVGKTQNGQDKTNAPSRLNQSPGLAPVKRTYEQMEFPLLKKRKLEEDADSPSCFEEKPEEPVVLALDPKGHEDDSYEARKSFLTKYFNKQPYPTRREIEKLAASLWLWKSDIASHFSNKRKKCVRDCEKYKPGVLLGFNMKELNKVKHEMDFDAEWLFENHDEKDSRVNASKTVDKKHNLGKEDDSFSDSFEHLEEESNGSGSPFDPVFEVEPKIPSDNLEEPVPKVIPEGALESEKLDQKEEEEEEEEEDGSKYETIHLTEEPAKLMHDASDSEVDQDDVVEWKDGASPSESGPGSQQISDFEDNTCEMKPGTWSDESSQSEDARSSKPAAKKKATVQDDTEQLKWKNSSYGKVEGFWSKDQSQWENASENAERLPNPQIEWQNSTIDSEDGEQFDSMTDGVADPMHGSLTGVKLSSQQA
modifications: left off: large carriers
notes: full length ADNF III expressed from clone 25, tested as E. coli protein extract
In the case of B1, the “EC50 of neuroprotective effects” value (neuronal cell death) is reported as “in the femtomolar range”, the “dilutions giving significant neuroprotection against tetrodotoxin” value [2] is reported as 10^−15-10^−13 and the “dilutions giving significant neuroprotection against tetrodotoxin” value ([2]; listed as clone p25) is reported as 10^−14. The “dilutions giving significant neuroprotection against β-amyloid” value [3] was > 10^−15 and the “dilutions giving significant neuroprotection against β-amyloid” value ([3]; listed as clone p25) was 10^−14.
